From ChEMBL document CHEMBL3779848, “Effect of chlorine substituent on cytotoxic activities: Design and synthesis of systematically modified 2,4-diphenyl-5H-indeno[1,2-b]pyridines” (Bioorg Med Chem Lett, 2016)
Counter-ions that a name gives are not always drawn.

Tested on: not listed separately
Assay: Potency index, ratio of IC50 for adriamycin to IC50 for test compound for cytotoxicity against human HCT15 cells
Assay type: functional, HCT-15
Settings: not given

Structure (SMILES) | Ratio IC50
Oc1ccc(-c2cc(-c3ccccc3Cl)nc3c2Cc2ccccc2-3)cc1 | 0.05
Oc1cccc(-c2cc(-c3cccc(Cl)c3)c3c(n2)-c2ccccc2C3)c1 | 0.06

Tested on: not listed separately
Assay: Cytotoxicity against human HCT15 cells after 3 days by CCK8 assay
Assay type: functional, cell-based
Settings: HCT-15, 72 h

Structure (SMILES) | IC50
Oc1ccccc1-c1cc(-c2ccccc2Cl)nc2c1Cc1ccccc1-2 | 6.23 µM
CC[C@@]1(O)C(=O)OCc2c1cc1n(c2=O)Cc2cc3ccccc3nc2-1 [CAMPTOTHECIN] | 1.29 µM
Oc1ccccc1-c1cc(-c2cccc(Cl)c2)nc2c1Cc1ccccc1-2 | 30.3 µM
Oc1ccccc1-c1cc(-c2ccccc2Cl)c2c(n1)-c1ccccc1C2 | > 50 µM
Oc1ccccc1-c1cc(-c2ccc(Cl)cc2)nc2c1Cc1ccccc1-2 | > 50 µM
c1ccc(-c2cc(-c3ccccc3)c3c(n2)-c2ccccc2C3)cc1 | > 50 µM
Oc1ccccc1-c1cc(-c2cccc(Cl)c2)c2c(n1)-c1ccccc1C2 | > 50 µM
Oc1ccccc1-c1cc(-c2ccccc2)c2c(n1)-c1ccccc1C2 | > 50 µM
Oc1ccccc1-c1cc(-c2ccccc2)nc2c1Cc1ccccc1-2 | > 50 µM
COc1cc([C@@H]2c3cc4c(cc3[C@@H](O[C@@H]3O[C@@H]5CO[C@@H](C)O[C@H]5[C@H](O)[C@H]3O)[C@H]3COC(=O)[C@H]23)OCO4)cc(OC)c1O [ETOPOSIDE] | 2.82 µM
Oc1ccccc1-c1cc(-c2ccc(Cl)cc2)c2c(n1)-c1ccccc1C2 | > 50 µM
Oc1ccc(-c2cc(-c3ccccc3Cl)nc3c2Cc2ccccc2-3)cc1 | 1.82 µM
Oc1cccc(-c2cc(-c3cccc(Cl)c3)c3c(n2)-c2ccccc2C3)c1 | 1.59 µM

Target: DNA topoisomerase 2-alpha (Homo sapiens) (UniProt P11388)
Assay: Inhibition of human recombinant DNA topoisomerase 2alpha at 100 uM assessed as relaxation of supercoiled DNA pBR322 after 30 mins by Agarose gel electrophoresis
Settings: not given

Sequence of DNA topoisomerase 2-alpha (Homo sapiens) (P11388 whole entry): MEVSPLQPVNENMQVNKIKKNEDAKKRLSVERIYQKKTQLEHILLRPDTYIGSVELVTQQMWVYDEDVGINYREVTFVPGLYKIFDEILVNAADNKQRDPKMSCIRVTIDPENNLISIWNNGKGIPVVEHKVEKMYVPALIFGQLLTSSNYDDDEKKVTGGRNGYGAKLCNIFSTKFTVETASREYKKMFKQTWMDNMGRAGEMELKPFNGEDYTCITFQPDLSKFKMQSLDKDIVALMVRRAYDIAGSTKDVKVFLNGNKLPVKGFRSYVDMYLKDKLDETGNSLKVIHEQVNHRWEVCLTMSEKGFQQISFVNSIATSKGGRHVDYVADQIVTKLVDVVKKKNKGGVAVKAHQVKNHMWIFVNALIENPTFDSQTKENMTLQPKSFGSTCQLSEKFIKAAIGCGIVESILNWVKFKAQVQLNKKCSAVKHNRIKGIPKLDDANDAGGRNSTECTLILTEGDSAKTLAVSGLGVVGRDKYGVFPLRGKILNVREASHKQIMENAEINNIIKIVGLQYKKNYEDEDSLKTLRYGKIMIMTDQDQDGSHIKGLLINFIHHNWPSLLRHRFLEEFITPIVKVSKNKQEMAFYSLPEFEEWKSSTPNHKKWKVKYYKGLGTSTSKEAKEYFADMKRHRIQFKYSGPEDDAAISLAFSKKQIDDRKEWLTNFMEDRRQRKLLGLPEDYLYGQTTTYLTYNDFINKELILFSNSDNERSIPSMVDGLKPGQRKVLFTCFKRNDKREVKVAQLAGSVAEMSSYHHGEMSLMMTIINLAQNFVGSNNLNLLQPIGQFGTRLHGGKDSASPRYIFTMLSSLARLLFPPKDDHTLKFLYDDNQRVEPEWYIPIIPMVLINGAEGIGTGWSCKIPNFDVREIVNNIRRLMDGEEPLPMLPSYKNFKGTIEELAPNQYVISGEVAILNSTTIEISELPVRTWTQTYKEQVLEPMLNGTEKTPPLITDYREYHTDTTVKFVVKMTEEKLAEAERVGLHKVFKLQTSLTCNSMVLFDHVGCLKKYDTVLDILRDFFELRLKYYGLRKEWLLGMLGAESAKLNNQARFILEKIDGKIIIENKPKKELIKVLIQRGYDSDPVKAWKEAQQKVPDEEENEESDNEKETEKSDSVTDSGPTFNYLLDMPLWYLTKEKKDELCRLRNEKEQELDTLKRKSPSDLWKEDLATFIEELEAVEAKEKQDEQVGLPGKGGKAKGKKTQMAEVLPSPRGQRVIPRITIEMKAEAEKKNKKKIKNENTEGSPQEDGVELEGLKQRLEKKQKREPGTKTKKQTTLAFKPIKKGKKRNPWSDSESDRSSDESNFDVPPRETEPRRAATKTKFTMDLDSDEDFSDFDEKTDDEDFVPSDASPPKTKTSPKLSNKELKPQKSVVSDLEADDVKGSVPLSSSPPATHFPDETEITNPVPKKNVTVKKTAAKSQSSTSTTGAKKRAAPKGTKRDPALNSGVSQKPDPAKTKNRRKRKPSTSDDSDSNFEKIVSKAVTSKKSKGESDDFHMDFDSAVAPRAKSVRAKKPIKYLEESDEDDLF

Structure (SMILES) | inhibition
Oc1ccccc1-c1cc(-c2ccc(Cl)cc2)nc2c1Cc1ccccc1-2 | 2.7%
c1ccc(-c2cc(-c3ccccc3)c3c(n2)-c2ccccc2C3)cc1 | 17.8%
Oc1ccccc1-c1cc(-c2cccc(Cl)c2)c2c(n1)-c1ccccc1C2 | 2.8%
Oc1ccccc1-c1cc(-c2ccccc2)c2c(n1)-c1ccccc1C2 | 36.4%
Oc1ccccc1-c1cc(-c2ccc(Cl)cc2)c2c(n1)-c1ccccc1C2 | 2.8%
Oc1ccc(-c2cc(-c3ccccc3Cl)nc3c2Cc2ccccc2-3)cc1 | 3.5%
Oc1cccc(-c2cc(-c3cccc(Cl)c3)c3c(n2)-c2ccccc2C3)c1 | 4.4%

The remaining lines, values ahead:

inhibition | Structure (SMILES)
1.9% | Oc1ccccc1-c1cc(-c2ccccc2Cl)nc2c1Cc1ccccc1-2
5.4% | Oc1ccccc1-c1cc(-c2cccc(Cl)c2)nc2c1Cc1ccccc1-2
4.8% | Oc1ccccc1-c1cc(-c2ccccc2Cl)c2c(n1)-c1ccccc1C2
69.6% | Oc1ccccc1-c1cc(-c2ccccc2)nc2c1Cc1ccccc1-2

Tested on: HeLa
Assay: Potency index, ratio of IC50 for adriamycin to IC50 for test compound for cytotoxicity against human HeLa cells
Assay type: functional
Settings: not given

Structure (SMILES) | Ratio IC50
Oc1ccc(-c2cc(-c3ccccc3Cl)nc3c2Cc2ccccc2-3)cc1 | 0.3
Oc1cccc(-c2cc(-c3cccc(Cl)c3)c3c(n2)-c2ccccc2C3)c1 | 0.43

Target: T1, DNA topoisomerase 1 (Homo sapiens) (UniProt P11387)
T1 sequence (whole entry): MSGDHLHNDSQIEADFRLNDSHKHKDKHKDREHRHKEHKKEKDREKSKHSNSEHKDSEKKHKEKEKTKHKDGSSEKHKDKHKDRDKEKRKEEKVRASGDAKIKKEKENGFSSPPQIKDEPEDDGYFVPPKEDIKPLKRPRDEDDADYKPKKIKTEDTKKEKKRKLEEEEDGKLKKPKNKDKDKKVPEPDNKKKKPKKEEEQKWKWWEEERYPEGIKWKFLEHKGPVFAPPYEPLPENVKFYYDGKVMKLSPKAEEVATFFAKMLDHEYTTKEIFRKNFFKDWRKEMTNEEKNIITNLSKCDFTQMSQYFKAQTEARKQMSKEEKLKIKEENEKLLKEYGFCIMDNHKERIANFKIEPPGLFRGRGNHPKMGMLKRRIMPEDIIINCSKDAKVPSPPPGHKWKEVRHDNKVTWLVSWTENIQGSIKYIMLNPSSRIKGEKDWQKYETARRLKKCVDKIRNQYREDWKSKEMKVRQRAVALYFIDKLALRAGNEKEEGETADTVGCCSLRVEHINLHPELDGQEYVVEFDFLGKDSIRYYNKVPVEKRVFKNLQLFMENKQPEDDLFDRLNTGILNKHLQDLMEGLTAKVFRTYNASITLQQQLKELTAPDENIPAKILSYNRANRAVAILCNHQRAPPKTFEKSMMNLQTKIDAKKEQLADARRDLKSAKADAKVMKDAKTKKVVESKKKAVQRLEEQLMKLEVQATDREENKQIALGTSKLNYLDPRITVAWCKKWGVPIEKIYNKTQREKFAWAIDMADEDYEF
Assay: Inhibition of human recombinant DNA topoisomerase 1 at 100 uM assessed as relaxation of supercoiled DNA pBR322 after 30 mins by Agarose gel electrophoresis
Settings: not given

Structure (SMILES) | inhibition
Oc1ccccc1-c1cc(-c2ccc(Cl)cc2)nc2c1Cc1ccccc1-2 | 0%
c1ccc(-c2cc(-c3ccccc3)c3c(n2)-c2ccccc2C3)cc1 | 0%
Oc1ccccc1-c1cc(-c2cccc(Cl)c2)c2c(n1)-c1ccccc1C2 | 1.1%
Oc1ccccc1-c1cc(-c2ccccc2)c2c(n1)-c1ccccc1C2 | 1.3%
Oc1ccccc1-c1cc(-c2ccc(Cl)cc2)c2c(n1)-c1ccccc1C2 | 8.3%
Oc1ccc(-c2cc(-c3ccccc3Cl)nc3c2Cc2ccccc2-3)cc1 | 0%
Oc1cccc(-c2cc(-c3cccc(Cl)c3)c3c(n2)-c2ccccc2C3)c1 | 7.5%

Next, values leading:

inhibition | Structure (SMILES)
0.8% | Oc1ccccc1-c1cc(-c2ccccc2Cl)nc2c1Cc1ccccc1-2
0% | Oc1ccccc1-c1cc(-c2cccc(Cl)c2)nc2c1Cc1ccccc1-2
0% | Oc1ccccc1-c1cc(-c2ccccc2Cl)c2c(n1)-c1ccccc1C2
15.1% | Oc1ccccc1-c1cc(-c2ccccc2)nc2c1Cc1ccccc1-2

Tested on: HeLa
Assay: Cytotoxicity against human HeLa cells after 3 days by CCK8 assay
Assay type: functional, cell-based
Settings: 72 h

Structure (SMILES) | IC50
COc1cccc2c1C(=O)c1c(O)c3c(c(O)c1C2=O)C[C@@](O)(C(=O)CO)C[C@@H]3O[C@H]1C[C@H](N)[C@H](O)[C@H](C)O1 [DOXORUBICIN HYDROCHLORIDE] | 0.82 µM
Oc1ccccc1-c1cc(-c2ccccc2Cl)nc2c1Cc1ccccc1-2 | 7.01 µM
CC[C@@]1(O)C(=O)OCc2c1cc1n(c2=O)Cc2cc3ccccc3nc2-1 [CAMPTOTHECIN] | 0.59 µM
Oc1ccccc1-c1cc(-c2cccc(Cl)c2)nc2c1Cc1ccccc1-2 | 17.1 µM
Oc1ccccc1-c1cc(-c2ccccc2Cl)c2c(n1)-c1ccccc1C2 | > 50 µM
Oc1ccccc1-c1cc(-c2ccc(Cl)cc2)nc2c1Cc1ccccc1-2 | > 50 µM
c1ccc(-c2cc(-c3ccccc3)c3c(n2)-c2ccccc2C3)cc1 | 17.3 µM
Oc1ccccc1-c1cc(-c2cccc(Cl)c2)c2c(n1)-c1ccccc1C2 | > 50 µM
Oc1ccccc1-c1cc(-c2ccccc2)c2c(n1)-c1ccccc1C2 | > 50 µM
Oc1ccccc1-c1cc(-c2ccccc2)nc2c1Cc1ccccc1-2 | > 50 µM
COc1cc([C@@H]2c3cc4c(cc3[C@@H](O[C@@H]3O[C@@H]5CO[C@@H](C)O[C@H]5[C@H](O)[C@H]3O)[C@H]3COC(=O)[C@H]23)OCO4)cc(OC)c1O [ETOPOSIDE] | 0.18 µM
Oc1ccccc1-c1cc(-c2ccc(Cl)cc2)c2c(n1)-c1ccccc1C2 | > 50 µM
Oc1ccc(-c2cc(-c3ccccc3Cl)nc3c2Cc2ccccc2-3)cc1 | 2.7 µM
Oc1cccc(-c2cc(-c3cccc(Cl)c3)c3c(n2)-c2ccccc2C3)c1 | 1.91 µM

Tested on: T47D
Assay: Cytotoxicity against human T47D cells after 3 days by CCK8 assay
Assay type: functional, cell-based
Settings: 72 h

Structure (SMILES) | IC50
Oc1ccccc1-c1cc(-c2ccccc2Cl)nc2c1Cc1ccccc1-2 | 6.64 µM
CC[C@@]1(O)C(=O)OCc2c1cc1n(c2=O)Cc2cc3ccccc3nc2-1 [CAMPTOTHECIN] | 11.2 µM
Oc1ccccc1-c1cc(-c2cccc(Cl)c2)nc2c1Cc1ccccc1-2 | > 50 µM
Oc1ccccc1-c1cc(-c2ccccc2Cl)c2c(n1)-c1ccccc1C2 | > 50 µM
Oc1ccccc1-c1cc(-c2ccc(Cl)cc2)nc2c1Cc1ccccc1-2 | > 50 µM
c1ccc(-c2cc(-c3ccccc3)c3c(n2)-c2ccccc2C3)cc1 | 26.8 µM
Oc1ccccc1-c1cc(-c2cccc(Cl)c2)c2c(n1)-c1ccccc1C2 | > 50 µM
Oc1ccccc1-c1cc(-c2ccccc2)c2c(n1)-c1ccccc1C2 | > 50 µM
Oc1ccccc1-c1cc(-c2ccccc2)nc2c1Cc1ccccc1-2 | > 50 µM
COc1cc([C@@H]2c3cc4c(cc3[C@@H](O[C@@H]3O[C@@H]5CO[C@@H](C)O[C@H]5[C@H](O)[C@H]3O)[C@H]3COC(=O)[C@H]23)OCO4)cc(OC)c1O [ETOPOSIDE] | 1.84 µM
Oc1ccccc1-c1cc(-c2ccc(Cl)cc2)c2c(n1)-c1ccccc1C2 | > 50 µM
Oc1ccc(-c2cc(-c3ccccc3Cl)nc3c2Cc2ccccc2-3)cc1 | 0.79 µM
Oc1cccc(-c2cc(-c3cccc(Cl)c3)c3c(n2)-c2ccccc2C3)c1 | 1.85 µM

Tested on: T47D
Assay: Potency index, ratio of IC50 for adriamycin to IC50 for test compound for cytotoxicity against human T47D cells
Assay type: functional
Settings: not given

Structure (SMILES) | Ratio IC50
Oc1ccc(-c2cc(-c3ccccc3Cl)nc3c2Cc2ccccc2-3)cc1 | 1.86
Oc1cccc(-c2cc(-c3cccc(Cl)c3)c3c(n2)-c2ccccc2C3)c1 | 0.79
